Where two headings read alike, the source gives them in different places.
Assays:
SW780 cells = assay: Oxic and anoxic anti-proliferative activity of the prodrugs; format: cell-based; details: Homo sapiens, SW780; oxic conditions; read-out: Cellular Anti-proliferative IC50, SW780, Oxic
H520 cells = assay: as above
SUM52 cells = assay: as above; details: for Hypoxic Cytotoxicity Ratio (HCR), SUM52: ratio of oxic and anoxic IC50
[1] = test system: FGFR1 in H520 cells (phospho-ERK1/2); assay: Drug washout Western blot assay, H520 cells; format: cell-based; details: H520; for reversible or irreversible inhibition of FGFR1 in cells / concentration required to suppress FGFR1 signalling through phospho-ERK1/2: 2 hours exposure; for reversible or irreversible inhibition of FGFR1 in cells: 100, 300 and 600 nM, with and without washout; for concentration required to suppress FGFR1 signalling through phospho-ERK1/2: tested at 100, 300 and 600 nM; for phospho-ERK1/2 after extensive drug washout: 30 min, washout prior to FGF-stimulation
[2] = test system: FGFR3 in SW780 cells (phospho-ERK1/2); assay: Drug washout Western blot assay, SW780 cells; format: cell-based; details: SW780, 30 min; for inhibition of phosphorylation of ERK1/2, no washout: then FGF-stimulation; for phospho-ERK1/2 after extensive drug washout: washout prior to FGF-stimulation
[3] = test system: FGFR2 in SUM52 cells (phospho-ERK1/2); assay: Drug washout Western blot assay, SUM52 cells; format: cell-based; details: SUM52, 30 min, washout prior to FGF-stimulation
Method: Cells were seeded on the day prior to drug treatment (1 million cells/well; 6-well plate).
Drug stocks were prepared in media using 1 mM or 10 mM DMSO stock solutions. Media was aspirated from each well and replaced with 2 ml of drug-free media for control wells or 2 ml of diluted drug for treated wells. Cells were exposed to drug for 30 min. Recombinant FGF (50 ng/well) was added to each well 15 minutes prior to the end of the drug exposure and protein was extracted as below.
Cells were exposed to drug for 30 min as above. Media was aspirated and each well was washed with 5 ml drug-free media. The wash media was aspirated and replaced with 2 ml drug-free media and cells incubated for a further 30 minutes, after which the wash protocol was repeated. Cells were incubated for a further 90 minutes in drug-free media. Recombinant FGF (50 ng/well) was added to each well 15 minutes prior to the end of the drug-free incubation and protein was extracted as below.
Cell lysates were prepared in 250 μL of RIPA lysis buffer containing protease inhibitor (1:100). After incubation on ice (30 min) and centrifugation (13,000 rpm, 5 min, 4° C.) the supernatants containing the proteins were stored (−20° C.) until required. Bicinchoninic acid (BCA) assay was used to determine the protein concentration of individual cell lysate samples.

[4] = test system: FGFR3-amplified SW780 bladder cancer cells; assay: Cell proliferation assay (SRB); details: Homo sapiens, SW780, 120 h, read-out: Cellular Anti-proliferative IC50, SW780, 5 days drug exposure
[5] = test system: FGFR2-amplified SUM52 breast cancer cells; assay: Cell proliferation assay (SRB); format: cell-based; details: SUM52, 120 h, read-out: Cellular Anti-proliferative IC50, SUM52, 5 days drug exposure
[6] = read-out: Cellular Anti-proliferative IC50, H520, Oxic, oxic conditions
[7] = read-out: Cellular Anti-proliferative IC50, SUM52, Anoxic, 4 hours of anoxia, remainder of assay oxic
[8] = read-out: Cellular Anti-proliferative IC50, SUM52, Oxic, oxic conditions

Row | Compound | melting point [°C] | IC50 (SW780 cells) [nM] | IC50 (H520 cells; [6]) [nM] | Hypoxic Cytotoxicity Ratio (HCR), SUM52 (SUM52 cells) | IC50 (SUM52 cells; [7]) [nM] | IC50 (SUM52 cells; [8]) [nM] | reversible or irreversible inhibition of FGFR1 in cells [1] | also measured
1 | COc1cc(OC)c(Cl)c(N2Cc3cnc(NC(C)C)nc3N([C@H]3CCN(C(=O)/C=C/C[N+](C)(C)Cc4c([N+](=O)[O-])ncn4C)C3)C2=O)c1Cl.[Br-] [Compound 201, (S,E)-4-(3-(3-(2,6-dichloro-3,5-dimethoxyphenyl)-7-(isopropylamino)-2-oxo-3,4-dihydropyrimido[4,5-d]pyrimidin-1(2H)-yl)pyrrolidin-1-yl)-N,N-dimethyl-N-((1-methyl-4-nitro-1H-imidazol-5-yl)methyl)-4-oxobut-2-en-1-aminium bromide] | 184 to 187 | 1990 | 902 | 16 | 38 | 612 | reversible inhibitors | –
2 | COc1cc(OC)c(Cl)c(N2Cc3cnc(NC4CCOCC4)nc3N(C3CCN(C(=O)/C=C/C[N+](C)(C)Cc4c([N+](=O)[O-])ncn4C)CC3)C2=O)c1Cl.O=C([O-])C(F)(F)F [Compound 203, (E)-4-(4-(3-(2,6-dichloro-3,5-dimethoxyphenyl)-2-oxo-7-((tetrahydro-2H-pyran-4-yl)amino)-3,4-dihydropyrimido[4,5-d]pyrimidin-1(2H)-yl)piperidin-1-yl)-N,N-dimethyl-N-((1-methyl-4-nitro-1H-imidazol-5-yl)methyl)-4-oxobut-2-en-1-aminium 2,2,2-trifluoroacetate] | 157 to 160 | – | – | 26 | 37 | 961 | – | –
3 | COc1cc(OC)c(Cl)c(N2Cc3cnc(Nc4ccc(F)cc4)nc3N(C3CCN(C(=O)/C=C/C[N+](C)(C)Cc4c([N+](=O)[O-])ncn4C)CC3)C2=O)c1Cl.O=C([O-])C(F)(F)F [Compound 205, (E)-4-(4-(3-(2,6-dichloro-3,5-dimethoxyphenyl)-7-((4-fluorophenyl)amino)-2-oxo-3,4-dihydropyrimido[4,5-d]pyrimidin-1(2H)-yl)piperidin-1-yl)-N,N-dimethyl-N-((1-methyl-4-nitro-1H-imidazol-5-yl)methyl)-4-oxobut-2-en-1-aminium 2,2,2-trifluoroacetate] | 162 to 165 | 1470 | 668 | 6 | 4 | 23 | reversible inhibitors | concentration required to suppress FGFR1 signalling through phospho-ERK1/2 [1]: > 300 nM
4 | COc1cc(OC)c(Cl)c(-c2cc3cnc(NC(C)C)cc3n(C3CCN(C(=O)/C=C/C[N+](C)(C)Cc4c([N+](=O)[O-])ncn4C)CC3)c2=O)c1Cl.[Br-] [Compound 215, (E)-4-(4-(3-(2,6-dichloro-3,5-dimethoxyphenyl)-7-(isopropylamino)-2-oxo-1,6-naphthyridin-1(2H)-yl)piperidin-1-yl)-N,N-dimethyl-N-((1-methyl-4-nitro-1H-imidazol-5-yl)methyl)-4-oxobut-2-en-1-aminium bromide] | 202 to 205 | 3500 | 4020 | 106 | 11 | 1190 | – | Hypoxic Cytotoxicity Ratio (HCR), H520 (H520 cells; ratio of oxic and anoxic IC50): 19; IC50 (H520 cells; read-out: Cellular Anti-proliferative IC50, H520, Anoxic, 4 hours of anoxia, remainder of assay oxic): 209 nM
5 | COc1cc(OC)c(Br)c(-c2cc3cnc(NC(C)C)cc3n(C3CCN(C(=O)/C=C/C[N+](C)(C)Cc4c([N+](=O)[O-])ncn4C)CC3)c2=O)c1Br.[Br-] [Compound 216, (E)-4-(4-(3-(2,6-dibromo-3,5-dimethoxyphenyl)-7-(isopropylamino)-2-oxo-1,6-naphthyridin-1(2H)-yl)piperidin-1-yl)-N,N-dimethyl-N-((1-methyl-4-nitro-1H-imidazol-5-yl)methyl)-4-oxobut-2-en-1-aminium bromide] | 219 | – | – | 59 | 6 | 346 | – | –
6 | CCN(CC)CCCCNc1ncc2cc(-c3cc(OC)cc(OC)c3)c(NC(=O)NC(C)(C)C)nc2n1 [PD173074, reference compound] | – | – | – | – | – | – | potent reversible inhibitor | inhibition of phosphorylation of ERK1/2, no washout ([2]; 100 nM): less effective; phospho-ERK1/2 after extensive drug washout ([2]; 100 nM): restoration; inhibition of phosphorylation of ERK1/2, no washout ([2]; 1000 nM): complete inhibition; phospho-ERK1/2 after extensive drug washout ([2]; 1000 nM): restoration; phospho-ERK1/2 after extensive drug washout ([3]; 100 nM): restoration; phospho-ERK1/2 after extensive drug washout ([3]; 1000 nM): restoration; IC50 [4]: 84 nM; IC50 [5]: 12 nM; phospho-ERK1/2 after extensive drug washout ([1]; 100 nM): restoration; phospho-ERK1/2 after extensive drug washout ([1]; 1000 nM): restoration; concentration required to suppress FGFR1 signalling through phospho-ERK1/2 [1]: ≤ 100 nM

More lines, main results first:

Row | melting point [°C] | IC50 (SW780 cells) [nM] | IC50 (H520 cells; [6]) [nM] | Compound | Hypoxic Cytotoxicity Ratio (HCR), SUM52 (SUM52 cells) | IC50 (SUM52 cells; [7]) [nM] | IC50 (SUM52 cells; [8]) [nM] | reversible or irreversible inhibition of FGFR1 in cells [1] | also measured
7 | 181 to 184 | – | – | COc1cc(OC)c(Cl)c(N2Cc3cnc(Nc4ccccc4)nc3N(C3CCN(C(=O)/C=C/C[N+](C)(C)Cc4c([N+](=O)[O-])ncn4C)CC3)C2=O)c1.[Br-] [Compound 217, (E)-4-(4-(3-(2-chloro-3,5-dimethoxyphenyl)-2-oxo-7-(phenylamino)-3,4-dihydropyrimido[4,5-d]pyrimidin-1(2H)-yl)piperidin-1-yl)-N,N-dimethyl-N-((1-methyl-4-nitro-1H-imidazol-5-yl)methyl)-4-oxobut-2-en-1-aminium bromide] | 7 | 4 | 24 | – | –
8 | > 295 | – | – | COc1cc(OC)c(Cl)c(N2Cc3cnc(Nc4ccc(N5CCOCC5)cc4)nc3N(C3CCN(C(=O)/C=C/C[N+](C)(C)Cc4c([N+](=O)[O-])ncn4C)CC3)C2=O)c1Cl.[Br-] [Compound 218, (E)-4-(4-(3-(2,6-dichloro-3,5-dimethoxyphenyl)-7-((4-morpholinophenyl)amino)-2-oxo-3,4-dihydropyrimido[4,5-d]pyrimidin-1(2H)-yl)piperidin-1-yl)-N,N-dimethyl-N-((1-methyl-4-nitro-1H-imidazol-5-yl)methyl)-4-oxobut-2-en-1-aminium bromide] | 4 | 3 | 14 | – | –
9 | 241 to 244 | – | – | COc1cc(OC)c(Cl)c(N2Cc3cnc(Nc4ccc(N5CCOCC5)cc4)nc3N(C3CCN(C(=O)/C=C/C[N+](C)(C)Cc4c([N+](=O)[O-])ncn4C)CC3)C2=O)c1.[Br-] [Compound 219, (E)-4-(4-(3-(2-chloro-3,5-dimethoxyphenyl)-7-((4-morpholinophenyl)amino)-2-oxo-3,4-dihydropyrimido[4,5-d]pyrimidin-1(2H)-yl)piperidin-1-yl)-N,N-dimethyl-N-((1-methyl-4-nitro-1H-imidazol-5-yl)methyl)-4-oxobut-2-en-1-aminium bromide] | 22 | 2 | 52 | – | –
10 | 192 to 195 | – | – | COc1cc(OC)cc(N2Cc3cnc(Nc4ccc(N5CCOCC5)cc4)nc3N(C3CCN(C(=O)/C=C/C[N+](C)(C)Cc4c([N+](=O)[O-])ncn4C)CC3)C2=O)c1.[Br-] [Compound 220, (E)-4-(4-(3-(3,5-dimethoxyphenyl)-7-((4-morpholinophenyl)amino)-2-oxo-3,4-dihydropyrimido[4,5-d]pyrimidin-1(2H)-yl)piperidin-1-yl)-N,N-dimethyl-N-((1-methyl-4-nitro-1H-imidazol-5-yl)methyl)-4-oxobut-2-en-1-aminium bromide] | 48 | 36 | 1720 | – | –

From patent US11192890B2, “FGFR kinase inhibitors and pharmaceutical uses” (AUCKLAND UNISERVICES LIMITED, priority 2017, dated 2021)
